Test results published in US8435978B2, “Substituted sulfonamide compounds” (Gruenenthal GmbH, priority 2006, dated 2013).
Where a name gives a salt, the structure may show the parent alone. Read-outs that look alike come from different tables or passages of the source.

Assays:
human B1R receptor = target: T1, human B1R receptor (Homo sapiens, UniProt P46663); experiment: Functional study on the bradykinin receptor 1 (B1R), FLIPR Ca2+ assay, hB1R cells; type: cell-based; conditions: agonist Lys-Des-Arg9-bradykinin 0.5 nM, % inhibition compared with the maximum achievable inhibition; for inhibition at 10 µM: read-out: B1R Antagonism, human [10 μM] % Inhibition
T1 construct: host or cells: CHO K1 cells (Chinese hamster ovary), stably transfected
T1 sequence (P46663 1-353): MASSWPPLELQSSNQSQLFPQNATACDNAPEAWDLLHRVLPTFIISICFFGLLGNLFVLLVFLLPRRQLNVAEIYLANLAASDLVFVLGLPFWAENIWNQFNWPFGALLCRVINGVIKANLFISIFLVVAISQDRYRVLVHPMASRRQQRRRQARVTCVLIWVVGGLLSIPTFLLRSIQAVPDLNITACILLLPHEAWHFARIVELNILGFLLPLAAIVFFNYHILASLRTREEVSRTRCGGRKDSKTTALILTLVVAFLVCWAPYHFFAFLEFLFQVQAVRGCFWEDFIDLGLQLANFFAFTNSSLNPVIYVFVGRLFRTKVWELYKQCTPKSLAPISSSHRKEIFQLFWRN
In short: (§1)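 FLIPR Ca2+ read-out (Fluo-4, peak fluorescence) in stably transfected CHO K1 cells. Compounds at 10 μM, then 10 min later agonist challenge: human B1R with Lys-Des-Arg9-bradykinin 0.5 nM, rat B1R with Des-Arg9-bradykinin 100 nM; reported as % activation or % of maximal inhibition.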

B1R receptor of the rat = target: T2, B1R receptor of the rat (Rattus norvegicus, UniProt P97583); experiment: Functional study on the bradykinin receptor 1 (B1R), FLIPR Ca2+ assay, rB1R cells; type: cell-based; conditions: agonist Des-Arg9-bradykinin 100 nM, % inhibition compared with the maximum achievable inhibition; for inhibition at 10 µM: read-out: B1R Antagonism, rat [10 μM] % Inhibition
T2 construct: host or cells: CHO K1 cells (Chinese hamster ovary), stably transfected
T2 sequence (P97583 1-337): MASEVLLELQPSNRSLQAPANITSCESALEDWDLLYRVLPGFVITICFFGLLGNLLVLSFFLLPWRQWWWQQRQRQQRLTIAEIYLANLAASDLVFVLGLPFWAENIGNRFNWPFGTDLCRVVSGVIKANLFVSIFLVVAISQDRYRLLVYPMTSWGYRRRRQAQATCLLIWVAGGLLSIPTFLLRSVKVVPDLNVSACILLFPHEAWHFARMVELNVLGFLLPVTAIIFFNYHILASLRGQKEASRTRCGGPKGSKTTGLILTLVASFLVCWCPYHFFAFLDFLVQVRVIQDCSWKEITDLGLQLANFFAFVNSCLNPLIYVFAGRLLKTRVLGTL
In short: as §1

[1] = test substance 10 μM, hB1R CHO K1 cells
[2] = test substance 10 μM, rB1R CHO K1 cells

Compound	inhibition at 10 µM (human B1R receptor; CHO-K1, test substance 10 μM) [%]	inhibition at 10 µM (B1R receptor of the rat; CHO-K1, test substance 10 μM) [%]	other results
COc1cc(C)c(S(=O)(=O)N2CCCC2COCC(=O)N2CCCN(c3ncccc3C#N)CC2)c(C)c1 (stereo not shown) [Example 531, 2-(4-(2-((1-(4-methoxy-2,6-dimethylphenylsulfonyl)pyrrolidin-2-yl)methoxy)acetyl)-1,4-diazepan-1-yl)nicotinonitrile]	92.6	96.2	–
COc1cc(C)c(S(=O)(=O)N2CCCCC2COCC(=O)N2CCc3cnccc3C2)c(C)c1 (stereo not shown) [Example 96, 1-(3,4-dihydro-2,6-naphthyridin-2(1H)-yl)-2-((1-(4-methoxy-2,6-dimethylphenyl-sulfonyl)piperidin-2-yl)methoxy)ethanone hydrochloride]	–	–	inhibition at 10 µM (human B1R receptor; [1]): 105%; inhibition at 10 µM (B1R receptor of the rat; [2]): 91.3%
O=C(COCC1CCCN1S(=O)(=O)c1ccc(Cl)c(Cl)c1)N1CCN(c2ccccc2)CC1 (stereo not shown) [Example 89, 2-[1-(3,4-dichloro-phenylsulfonyl)-pyrrolidin-2-ylmethoxy]-1-(4-phenyl-piperazin-1-yl)-ethanone]	41.3	0	–
COc1cc(C)c(S(=O)(=O)N2CCCCC2COCC(=O)Nc2[nH]ncc2-c2ccc(OC)c(OC)c2)c(C)c1 (stereo not shown) [Example 538, N-(4-(3,4-dimethoxyphenyl)-1H-pyrazol-5-yl)-2-((1-(4-methoxy-2,6-dimethylphenylsulfonyl)piperidin-2-yl)methoxy)acetamide]	-11.8	106	–
COc1cc(C)c(S(=O)(=O)N2CCCCC2COCC(=O)N2CCN(Cc3ccc(Br)cc3)CC2)c(C)c1 (stereo not shown) [Example 382, 1-(4-(4-bromobenzyl)piperazin-1-yl)-2-((1-(4-methoxy-2,6-dimethylphenylsulfonyl)piperidin-2-yl)methoxy)ethanone]	103	101	–
COc1cc(C)c(S(=O)(=O)N2CCCCC2COCC(=O)N2CCC(c3ccncc3)C2)c(C)c1 (stereo not shown) [Example 238, 2-((1-(4-methoxy-2,6-dimethylphenylsulfonyl)piperidin-2-yl)methoxy)-1-(3-(pyridin-4-yl)pyrrolidin-1-yl)ethanone]	99.9	99.3	–
Cc1cc(C)c(S(=O)(=O)N2CCCCC2COCC(=O)N2CCCN(Cc3ccccc3)CC2)c(C)c1 (stereo not shown) [Example 31, 1-(4-benzyl-[1,4]diazepan-1-yl)-2-[1-(2,4,6-trimethyl-phenylsulfonyl)-piperidin-2-ylmethoxy]-ethanone]	83.8	94.7	–
COc1cc(C)c(S(=O)(=O)N2CCCCC2COCC(=O)Nc2ccc(CCc3nc4ccccc4n3C)cc2)c(C)c1 (stereo not shown) [Example 417, 2-((1-(4-methoxy-2,6-dimethylphenylsulfonyl)piperidin-2-yl)methoxy)-N-(4-(2-(1-methyl-1H-benzo[d]imidazol-2-yl)ethyl)phenyl)acetamide]	96.2	103	–
N-(4-(dimethylamino)butyl)-2-((1-(2,4,6-trichlorophenylsulfonyl)pyrrolidin-2-yl)methoxy)acetamide [Example 294]	–	–	B1R Antagonism, human [10 μM] % Inhibition (human B1R receptor; [1]): 105.91%; B1R Antagonism, rat [10 μM] % Inhibition (B1R receptor of the rat; [2]): 100%
COc1cccc(N2CCN(C(=O)COCC3CCCCN3S(=O)(=O)c3c(C)cc(OC)cc3C)CC2)c1 (stereo not shown) [Example 288, 2-((1-(4-methoxy-2,6-dimethylphenylsulfonyl)piperidin-2-yl)methoxy)-1-(4-(3-methoxyphenyl)piperazin-1-yl)ethanone]	102	93.3	–
COc1cc(C)c(S(=O)(=O)N2CCCCC2COCC(=O)N2CCCC2CN2CCCCC2)c(C)c1 (stereo not shown) [Example 399, 2-((1-(4-methoxy-2,6-dimethylphenylsulfonyl)piperidin-2-yl)methoxy)-1-(2-(piperidin-1-ylmethyl)pyrrolidin-1-yl)ethanone]	93	102	–
COc1cc(C)c(S(=O)(=O)N2CCCCC2COCC(=O)NCCc2c[nH]c3ccccc23)c(C)c1 (stereo not shown) [Example 243, N-(2-(1H-indol-3-yl)ethyl)-2-((1-(4-methoxy-2,6-dimethylphenylsulfonyl)piperidin-2-yl)methoxy)acetamide]	24.8	80.6	–
COc1cc(C)c(S(=O)(=O)N2CCCCC2COCC(=O)N2CCN(c3nc4ccccc4s3)CC2)c(C)c1 (stereo not shown) [Example 526, 1-(4-(benzo[d]thiazol-2-yl)piperazin-1-yl)-2-((1-(4-methoxy-2,6-dimethylphenylsulfonyl)piperidin-2-yl)methoxy)ethanone]	73.3	102	–
O=C(COCC1CCCCN1S(=O)(=O)c1c(Cl)cccc1Cl)N1CCN(c2ncc(Cl)cc2Cl)CC1 (stereo not shown) [Example 551, 2-((1-(2,6-dichlorophenylsulfonyl)piperidin-2-yl)methoxy)-1-(4-(3,5-dichloropyridin-2-yl)piperazin-1-yl)ethanone]	52.7	102	–
O=C(COCC1Cc2ccccc2CN1S(=O)(=O)c1ccc(Cl)c(Cl)c1)N1CCC(N2CCCC2)CC1 (stereo not shown) [Example 38, 2-((2-(3,4-dichlorophenylsulfonyl)-1,2,3,4-tetrahydroisoquinolin-3-yl)methoxy)-1-(4-(pyrrolidin-1-yl)piperidin-1-yl)ethanone]	75	65.4	–
COc1cc(C)c(S(=O)(=O)N2CCCC2COCC(=O)N2CCC(CCN3CCCC3)CC2)c(C)c1 (stereo not shown) [Example 95, 2-((1-(4-methoxy-2,6-dimethylphenylsulfonyl)pyrrolidin-2-yl)methoxy)-1-(4-(2-(pyrrolidin-1-yl)ethyl)piperidin-1-yl)ethanone]	107	101	–
COc1cc(C)c(S(=O)(=O)N2CCCCC2COCC(=O)NCCCCCN(C)C)c(C)c1 (stereo not shown) [Example 250, N-(5-(dimethylamino)pentyl)-2-((1-(4-methoxy-2,6-dimethylphenylsulfonyl)piperidin-2-yl)methoxy)acetamide]	96.8	90.5	–
O=C(COCC1CCCCN1S(=O)(=O)c1c(Cl)cc(Cl)cc1Cl)NCc1ccc(N2CCCCC2)cc1 (stereo not shown) [Example 74, N-(4-piperidin-1-yl-benzyl)-2-[1-(2,4,6-trichloro-phenylsulfonyl)-piperidin-2-yl-methoxy]-acetamide]	50.4	103	–
COc1cc(C)c(S(=O)(=O)N2CCCCC2COCC(=O)Nc2cccc(N3CCCCC3)c2)c(C)c1 (stereo not shown) [Example 429, 2-((1-(4-methoxy-2,6-dimethylphenylsulfonyl)piperidin-2-yl)methoxy)-N-(3-(piperidin-1-yl)phenyl)acetamide]	14.3	99.5	–
CN(C)CCCN1CCN(C(=O)COCC2CCCN2S(=O)(=O)c2c(Cl)cccc2Cl)CC1 (stereo not shown) [Example 566, 2-((1-(2,6-dichlorophenylsulfonyl)pyrrolidin-2-yl)methoxy)-1-(4-(3-(dimethylamino)propyl)piperazin-1-yl)ethanone]	103	103	–
COc1cc(C)c(S(=O)(=O)N2CCCCC2COCC(=O)NCc2cccc(Oc3cnccn3)c2)c(C)c1 (stereo not shown) [Example 195, 2-((1-(4-methoxy-2,6-dimethylphenylsulfonyl)piperidin-2-yl)methoxy)-N-(3-(pyrazin-2-yloxy)benzyl)acetamide]	85.1	98.8	–
CN1CCC(N2CCN(C(=O)COCC3CCCCN3S(=O)(=O)c3ccc(Cl)c4nonc34)CC2)CC1 (stereo not shown) [Example 154, 2-((1-(7-chlorobenzo[c][1,2,5]oxadiazol-4-ylsulfonyl)piperidin-2-yl)methoxy)-1-(4-(1-methylpiperidin-4-yl)piperazin-1-yl)ethanone]	83.2	84.4	–
COc1cc(C)c(S(=O)(=O)N2CCCCC2COCC(=O)NCc2cccc(N3CCCCC3)c2)c(C)c1 (stereo not shown) [Example 430, 2-((1-(4-methoxy-2,6-dimethylphenylsulfonyl)piperidin-2-yl)methoxy)-N-(3-(piperidin-1-yl)benzyl)acetamide]	38.6	101	–
